Measurements reported in PMC7982406, “Proteinase-Mediated Macrophage Signaling in Psoriatic Arthritis” (Frontiers in Immunology, 2021).
Where a SMILES comes first, the peptide text is derived from it. [ ]: non-standard residue; d: D form. The star is where a group is joined. AMC = Cc1cc(=O)oc2cc(N*)ccc12

Columns and labels:
[1] = molecular target: proteinase-activated receptor 2 (human (endogenous in HEK-293, THP-1 and primary monocytes/macrophages)) (UniProt P55085)
[2] = molecular target: T1, Tryptase-6 (PRSS33) (Homo sapiens, UniProt Q8NF86); experiment: fluorogenic cleavage, antibody pull-down from synovial fluid; format: biochemical; conditions: 37 °C; ex 380 nm, em 460 nm; enzyme captured by plate-immobilized antibody
T1 construct: native active enzyme (~25 kDa) captured by anti-tryptase-6 antibody from patient synovial fluid
T1 sequence (Q8NF86 37-280): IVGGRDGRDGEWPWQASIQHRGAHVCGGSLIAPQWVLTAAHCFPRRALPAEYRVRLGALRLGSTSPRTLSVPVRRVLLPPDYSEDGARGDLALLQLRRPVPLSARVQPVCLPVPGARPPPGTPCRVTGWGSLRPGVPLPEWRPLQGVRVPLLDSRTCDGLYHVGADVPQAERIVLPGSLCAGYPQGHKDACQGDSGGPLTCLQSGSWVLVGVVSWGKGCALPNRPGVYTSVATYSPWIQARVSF

[3] = molecular target: T2, PAR2 (proteinase-activated receptor 2) (Homo sapiens, UniProt P55085); experiment: calcium signaling (Fluo-4 AM), HEK-293 cells; format: cell-based; conditions: antagonist; pre-treatment, then 0.15 µM 2fLI as agonist; 37 °C
T2 construct: gene F2RL1; endogenous full-length receptor in HEK-293 cells; no response to 2fLI in CRISPR PAR2-knockout HEK-293
T2 sequence (P55085 26-397): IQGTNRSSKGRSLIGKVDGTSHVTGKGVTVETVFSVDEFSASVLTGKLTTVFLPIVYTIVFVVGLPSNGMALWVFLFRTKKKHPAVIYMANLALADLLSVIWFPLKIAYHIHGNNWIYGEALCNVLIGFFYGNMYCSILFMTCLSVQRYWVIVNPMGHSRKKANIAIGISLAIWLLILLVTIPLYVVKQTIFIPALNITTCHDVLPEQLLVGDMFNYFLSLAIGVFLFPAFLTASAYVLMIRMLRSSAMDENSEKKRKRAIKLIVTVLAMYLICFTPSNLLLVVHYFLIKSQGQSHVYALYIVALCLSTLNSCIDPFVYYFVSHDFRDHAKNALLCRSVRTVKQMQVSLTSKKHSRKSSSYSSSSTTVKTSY

2-furoyl-LIGRLO-NH2 (peptide)
calcium signaling (Fluo-4 AM) in HEK-293 cells, concentration-effect curve of 2fLI, EC50 [1]: 0.14 µM

Cc1cc(=O)oc2cc(NC(=O)[C@H](CCCCN)NC(=O)[C@H](CC(C)C)NC(=O)[C@H](N)C(C)C)ccc12 [VLK-AMC] (H-[dV]-Leu-Lys-{AMC})
fluorogenic cleavage, antibody pull-down from synovial fluid [2]: Tryptase-6 activity increased when both substrates were added

CC(C)(C)c1cc(-c2ccc(F)cc2)nn2cc(C(=O)N3CCNC(=O)C3(C)C)nc12 [I-191]
IC50 [3]: 0.0021 µM
